According to patent US5871779A, “Treatment of arthropathies with vanadate compounds or analogues thereof” (Mount Sinai Hospital Corporation, priority 1996, dated 1999):

What was measured:
MCF7 (WT) = experiment: MTT cytotoxicity assay, MCF7 (WT); format: cell-based, human; conditions: Homo sapiens, MCF7, 72 h, read-out: IC50 Value
Procedure: (§1) The relative cytotoxicity of various compounds on tumor cell lines was investigated as follows. Cytotoxicity was measured by the MTT microculture tetrazolium colorimetric assay for all cell lines. The relative cytotoxicity of Na3 VO4 and VOSO4 was investigated using the following tumor cell lines: P388(WT) murine leukemia, P388 (ADR) murine leukemia, Lewis murine lung, MCF7 (WT) human breast, […] human lung, K562 human erythroleukemia, A431 human epidermal, LS180 human colon and SK-OV-3 human ovarian. The relative cytotoxicity of doxorubicin, Na3 VO4 and VOSO4 was investigated using the following tumor cell lines: P388(WT) murine leukemia, P388 (ADR) murine leukemia, MCF7(WT) human breast and MCF7 (ADR) human breast. The relative cytotoxicity of BMOV, BEOV and naglivan was investigated using the following tumor cell lines: P388(WT) murine leukemia, P388 (ADR) murine leukemia, Lewis murine lung, H460 human lung, K562 human erythroleukemia, and SK-OV-3 human ovarian.
(§2) The cells were plated (number of cells/well was different from cell line to cell depending on the dividing rate) in a 96-well microculture plate 24 hours prior to the delivery of the vanadium compounds. Serial concentrations of solutions of the test compounds (0.05-100 μM) were delivered to the corresponding wells. A blank column (without cells) and a control column (with cells without vanadium) were left. The cells were incubated for 72 hours continuously. An MTT solution was added to each well after this incubation period and the cells were incubated for 4 more hours for the completion of the dyeing process. The medium was removed find DMSO was added to each well. The absorbance of each well was read with a Titertek Multiskan (310C) spectrophotometer at 570 nm. The percentage of the absorbance of each vanadium concentration relative to the control calculated and the value of the 50% growth inhibition concentration (IC50) was obtained from the % control versus concentration plot. Each assay was repeated three times and the reported IC50 values were the mean of these three runs.

P388 (ADR) = experiment: MTT cytotoxicity assay, P388 (ADR); format: cell-based, murine; conditions: Mus musculus, P388/ADR, 72 h, read-out: IC50 Value
Procedure: as §1, §2

P388 (WT) = experiment: MTT cytotoxicity assay, P388 (WT); format: cell-based, murine; conditions: Mus musculus, P388, 72 h, read-out: IC50 Value
Procedure: as §1, §2

KB8, KB8-5 and KB85-11 = conditions: stated as background; cited from earlier work
MCF7 (ADR) = experiment: MTT cytotoxicity assay, MCF7 (ADR); format: cell-based, human; conditions: Homo sapiens, NCI/ADR-RES, 72 h, read-out: IC50 Value
Procedure: as §1, §2

collagenase = collagenase production by chondrocytes (ELISA); format: cell-based, bovine; conditions: stimulus alone, 24 hours
Procedure: (§3) The effect of orthovanadate and N-acetylcysteine on fos, jun and collagenase expression were examined. Bovine articular chondrocytes were isolated and plated as previously described (Kandel R. A. et al. Biochim. Biophys. Acta. 1053, 130-134, 1990). In order to determine the effect of orthovanadate on IL 1 and PMA (phorbol ester) induced responses, chondrocytes were incubated with orthovanadate (100 μM) for 2 hours before stimulation with IL 1 (10 ng/ml) or PMA ([…]). Collagenase production was determined by incubating chondrocytes for 24 hours with IL 1 or PMA and the cell conditioned medium was assayed for collagenase activity using an ELISA procedure as described previously (Kandel et al. supra). PLA2 activity was measured by incorporating ^3 H-arachidonic acid (^3 H-AA) into the cells and then incubating the cells with medium containing 1 mg/ml BSA, either alone or in the presence of IL 1 or PMA, for 10 min. as previously described (Conquer, J. A. […], Biochim. Biophys. Acta. 1134, 1-6). The amount of ^3 H-AA liberated into the supernatant was determined. To measure PGE2 production, chondrocytes were incubated for 6 hours in Ham's F12 medium, either alone or with IL 1 or PMA. The supernatant was analyzed by RIA using an antibody specific for PGE2 (Dr. S. A. Jones, Mount Sinai Hospital, Toronto, Canada). In order to examine the expression of c-fos and c-jun, chondrocytes were incubated for 1 hour in the presence of IL-1, PMA or AA (3 μM). Chondrocytes were washed in PBS and the total RNA extracted as previously described (Cruz. et al, 1991, Biochem. J. 277, 327-330). RNA samples were run on formaldehyde agarose gels and transferred to nylon membrane for northern analysis using cDNA probes for c-fos and c-jun.

PGE2 = PGE2 production by chondrocytes (RIA); format: cell-based, bovine; conditions: stimulus alone, 6 hours
Procedure: as §3, with “In order to examine the expression of c-fos and c-jun, chondrocytes were incubated for 1 hour in the presence of IL-1, PMA or AA (3 μM). Chondrocytes were washed in PBS and the total RNA extracted as previously described (Cruz. et al, 1991, Biochem. J. 277, 327-330). RNA samples were run on formaldehyde agarose gels and transferred to nylon membrane for northern analysis using cDNA probes for c-fos and c-jun.” left out

PLA2 = experiment: release of 3H-arachidonic acid from chondrocytes (PLA2 activity); format: cell-based, bovine; conditions: stimulus alone, 10 min
Procedure: as §3, with “In order to examine the expression of c-fos and c-jun, chondrocytes were incubated for 1 hour in the presence of IL-1, PMA or AA (3 μM). Chondrocytes were washed in PBS and the total RNA extracted as previously described (Cruz. et al, 1991, Biochem. J. 277, 327-330). RNA samples were run on formaldehyde agarose gels and transferred to nylon membrane for northern analysis using cDNA probes for c-fos and c-jun.” left out

fos = fos / c-fos mRNA expression in chondrocytes (Northern blot); format: cell-based, bovine; conditions: stimulus alone; H2 O2 30, 60 and 90 minutes; IL-1, PMA or AA (3 μM) 1 hour
Procedure: (§4) The cytokine interleukin 1 (IL 1) has been used to identify the intermediate second messengers which regulate the expression of fos and jun.
In order to elucidate this possibility, the effect of DPI on fos and jun mRNA levels induced by IL 1 was investigated. RNA from chondrocytes treated with IL 1 in the presence and absence of DPI were analyzed by Northern blot analysis using either fos or collagenase cDNA probes.
Since superoxides are rapidly converted to hydrogen peroxide in the cell by superoxide dismutase, whether hydrogen peroxide could mimic the effect of IL 1 in the induction of fos expression was investigated. RNA was extracted from chondrocytes (Kandel et al. supra) treated with H2 O2 for 30, 60 and 90 minutes and examined by Northern blot analysis using a fos cDNA probe.
Bovine articular chondrocytes were isolated and plated as previously described (Kandel R. A. et al. Biochim. Biophys. Acta. 1053, 130-134, 1990). […] The amount of ^3 H-AA liberated into the supernatant was determined. To measure PGE2 production, chondrocytes were incubated for 6 hours in Ham's F12 medium, either alone or with IL 1 or PMA. […] In order to examine the expression of c-fos and c-jun, chondrocytes were incubated for 1 hour in the presence of IL-1, PMA or AA (3 μM). Chondrocytes were washed in PBS and the total RNA extracted as previously described (Cruz. et al, 1991, Biochem. J. 277, 327-330). RNA samples were run on formaldehyde agarose gels and transferred to nylon membrane for northern analysis using cDNA probes for c-fos and c-jun.
The RNA was extracted and examined by Northern blot analysis using cDNA probes for c-fos and collagenase.

jun = jun / c-jun mRNA expression in chondrocytes (Northern blot); format: cell-based, bovine; conditions: stimulus alone, 1 hour
Description: as §4
Although IL 1 stimulated superoxide production, it was not known whether IL 1 induced fos and jun expression was dependent on the production of superoxides. In order to elucidate this possibility, the effect of DPI on fos and jun mRNA levels induced by IL 1 was investigated. RNA from chondrocytes treated with IL 1 in the presence and absence of DPI were analyzed by Northern blot analysis using either fos or collagenase cDNA probes. […] Similar data has been obtained for IL 1 induced jun expression. Furthermore, inhibition of fos and jun expression by DPI was sufficient to suppress IL 1 induced and constitutive collagenase expression.
as §3, with “To measure PGE2 production, chondrocytes were incubated for 6 hours in Ham's F12 medium, either alone or with IL 1 or PMA.” left out, “In order to examine the expression of c-fos and c-jun, chondrocytes were incubated for 1 hour in the presence of IL-1, PMA or AA (3 μM). Chondrocytes were washed in PBS and the total RNA extracted as previously described (Cruz. et al, 1991, Biochem. J. 277, 327-330). RNA samples were run on formaldehyde agarose gels and transferred to nylon membrane for northern analysis using cDNA probes for c-fos and c-jun.” left out

chondrocytes = experiment: TNFα and bFGF induced ROS production in chondrocytes (DHR fluorescence); format: cell-based; conditions: 4 hours in the presence of DHR
Procedure: With time, DHR by itself caused a shift in fluorescence to the right as shown in panels a to c. A dotted line was drawn through the mean fluorescence intensity of the control (panel c) with DHR alone for 4 hours. After incubation with TNFα or bFGF for 4 hours in the presence of DHR, there was a further shift in logarithmic fluorescence intensity as indicated in panel d or f. In panels e and g, DPI abolished the fluorescent shift stimulated by TNPα and bFGF respectively.

c-fos = experiment: TNFα and bFGF induced c-fos mRNA in chondrocytes (Northern blot); format: cell-based, bovine; conditions: 100 μM, 2 hours preincubation
Procedure: Chondrocyte cultures were stimulated with H2 O2 (100 μM) at different time points as indicated. […] Chondrocyte cultures were preincubated with NAC (30 mM) or Asc (100 μM) for 2 hours before the addition of bFGF (10 ng/ml) or TNFα (30 ng/ml) for 30 minutes. Both human recombinant TNFα and bFGF were dissolved in phosphate buffered saline with 0.1% bovine serum albumin. NAC and Asc were first dissolved in Ham's F12 medium containing 5% (v/v) fetal bovine serum, then neutralized with sodium hydroxide. Total RNA from bovine articular chondrocytes was isolated and the c-fos mRNA levels were determined by Northern blot analysis as described herein. The blots were subsequently stripped of DNA and re-probed with ^32 p-labelled rat β tubulin cDNA.
Chondrocyte cultures were pretreated with DPI (2 μM) for 30 minutes before the addition of TNFα (30 ng/ml) or bFGF (10 ng/ml) for 30 minutes. Measurements of c-fos and tubulin mRNA levels were as described in Example 11.

carcinogenesis = conditions: G. Shklar et al.; cited from earlier work

COc1cccc2c1C(=O)c1c(O)c3c(c(O)c1C2=O)C[C@@](O)(C(=O)CO)C[C@@H]3O[C@H]1C[C@H](N)[C@H](O)[C@H](C)O1 [doxorubicin, reference compound]
IC50 (MCF7 (WT)): 492 nM
IC50 (P388 (ADR)): 3770 nM
IC50 (P388 (WT)): 23 nM
killing of drug resistant cell lines by conventional chemotherapeutic agents (KB8, KB8-5 and KB85-11): not killed
IC50 (MCF7 (ADR)): 25700 nM

CCCCCCCCCCCCCC(=O)O[C@@H]1[C@@H](C)[C@@]2(O)[C@@H](C=C(CO)C[C@]3(O)C(=O)C(C)=C[C@@H]23)[C@@H]2C(C)(C)[C@]12OC(C)=O [PMA, reference compound]
induction of collagenase production (collagenase): induced
induction of PGE2 production (PGE2): induced
induction of 3H-AA release (PLA2): induced
stimulation of fos / c-fos expression (fos): stimulated
stimulation of c-jun expression (jun): stimulated

CCCCC/C=C\C/C=C\C/C=C\C/C=C\CCCC(=O)O [AA, arachidonic acid]
stimulation of fos / c-fos expression (fos): stimulated
stimulation of c-jun expression (jun): stimulated

TNFα
shift in logarithmic fluorescence intensity (ROS production) (chondrocytes): further shift

COc1cc2c(c(OC)c1OC)-c1ccc(OC)c(=O)cc1[C@@H](NC(C)=O)CC2 [colchicine]
killing of drug resistant cell lines by conventional chemotherapeutic agents (KB8, KB8-5 and KB85-11): not killed

bFGF: human recombinant bFGF
shift in logarithmic fluorescence intensity (ROS production) (chondrocytes): further shift

CC[C@]1(O)C[C@@H]2CN(CCc3c([nH]c4ccccc34)[C@@](C(=O)OC)(c3cc4c(cc3OC)N(C)[C@H]3[C@@](O)(C(=O)OC)[C@H](OC(C)=O)[C@]5(CC)C=CCN6CC[C@]43[C@@H]65)C2)C1 [vinblastine]
killing of drug resistant cell lines by conventional chemotherapeutic agents (KB8, KB8-5 and KB85-11): not killed

O=C1O[C@H]([C@@H](O)CO)C(O)=C1O [Asc, ascorbic acid]
inhibition of TNFα and bFGF induced c-fos mRNA levels (c-fos): inhibit
anticancer activity (carcinogenesis): anticancer activity
